{"source": "patent US7750036B2", "about": "(SB Pharmco Puerto Rico Inc., priority 2004, dated 2010)", "key": {"[1]": {"conditions": "cited from earlier work"}, "physchem": {"experiment": "physchem", "conditions": "pH 7.1, aqueous buffer"}}, "note": "Where two headings read alike, the source gives them in different places.", "data": [{"smiles": "COc1ccccc1OCCNCC(O)COc1cccc2[nH]c3ccccc3c12.Cl", "note": "(centres unmarked) [hydrochloride salt of carvedilol]", "values": [{"measurement": "solubility of salt generated in situ", "setting": "[1]; acidic medium which simulates gastric fluid", "result": "less soluble"}]}, {"smiles": "COc1ccccc1OCCNCC(O)COc1cccc2[nH]c3ccccc3c12", "note": "(racemic) [Carvedilol]", "values": [{"measurement": "solubility", "setting": "physchem", "result": "20 to 30", "unit": "µg/mL"}, {"measurement": "solubility", "setting": "[1]; above a pH of 9.0", "result": "< 1", "unit": "µg/mL"}, {"measurement": "saturation solubility", "setting": "[1]; pH=5, room temperature", "result": "about 100 μg/mL"}, {"measurement": "saturation solubility", "setting": "[1]; pH=7, room temperature", "result": "about 23 μg/mL"}]}]}
